From PubChem BioAssay (NCI)
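How tested: cells in 96-well plates exposed to compound for 48 hours at five concentrations. Abbreviation: GI50, concentration required for 50% inhibition of growth. TGI denotes the concentration required for complete inhibition of growth.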

Columns and labels:
Experiment in all cases: DTP human tumour cell line panel, 48 h
786-0 renal = system: 786-0 renal
A498 renal = system: A498 renal
A549 NSCLC = system: A549 NSCLC
ACHN renal = system: ACHN renal
BT-549 breast = system: BT-549 breast
CAKI-1 renal = system: CAKI-1 renal
CCRF-CEM leukemia = system: CCRF-CEM leukemia
COLO 205 colon = system: COLO 205 colon
DU-145 prostate = system: DU-145 prostate
EKVX NSCLC = system: EKVX NSCLC
HCC-2998 colon = system: HCC-2998 colon
HCT-116 colon = system: HCT-116 colon
HCT-15 colon = system: HCT-15 colon
HL-60(TB) leukemia = system: HL-60(TB) leukemia
HOP-62 NSCLC = system: HOP-62 NSCLC
HOP-92 NSCLC = system: HOP-92 NSCLC
HT29 colon = system: HT29 colon
IGROV1 ovarian = system: IGROV1 ovarian
K-562 leukemia = system: K-562 leukemia
KM12 colon = system: KM12 colon
LOX IMVI melanoma = system: LOX IMVI melanoma
M14 melanoma = system: M14 melanoma
MALME-3M melanoma = system: MALME-3M melanoma
MCF7 breast = system: MCF7 breast
MDA-MB-231 breast = system: MDA-MB-231 breast
MDA-MB-435 = system: MDA-MB-435
MOLT-4 leukemia = system: MOLT-4 leukemia
NCI-H226 lung = system: NCI-H226 lung
NCI-H23 lung = system: NCI-H23 lung
NCI-H460 lung = system: NCI-H460 lung
NCI-H522 lung = system: NCI-H522 lung
NCI/ADR-RES ovarian = system: NCI/ADR-RES ovarian
OVCAR-3 ovarian = system: OVCAR-3 ovarian
OVCAR-4 ovarian = system: OVCAR-4 ovarian
OVCAR-5 ovarian = system: OVCAR-5 ovarian
OVCAR-8 ovarian = system: OVCAR-8 ovarian
PC-3 prostate = system: PC-3 prostate
RPMI-8226 leukemia = system: RPMI-8226 leukemia
SF-268 CNS = system: SF-268 CNS
SF-295 CNS = system: SF-295 CNS
SF-539 CNS = system: SF-539 CNS
SK-MEL-2 melanoma = system: SK-MEL-2 melanoma
SK-MEL-5 melanoma = system: SK-MEL-5 melanoma
SK-OV-3 ovarian = system: SK-OV-3 ovarian
SN12C renal = system: SN12C renal
SNB-19 CNS = system: SNB-19 CNS
SNB-75 CNS = system: SNB-75 CNS
SR leukemia = system: SR leukemia
T-47D breast = system: T-47D breast
TK-10 renal = system: TK-10 renal
U251 CNS = system: U251 CNS
UACC-257 melanoma = system: UACC-257 melanoma
UACC-62 melanoma = system: UACC-62 melanoma
UO-31 renal = system: UO-31 renal

COc1cc(C(=O)/C=C/c2c(-c3cccs3)nc3sc(C)cn23)cc(OC)c1OC
GI50 (786-0 renal): 3.7 µM
TGI (786-0 renal): 38.2 µM
GI50 (A498 renal): 1.51 µM
TGI (A498 renal): 5.78 µM
GI50 (A549 NSCLC): 2.69 µM
TGI (A549 NSCLC): 19.6 µM
GI50 (ACHN renal): 5.15 µM
TGI (ACHN renal): > 100 µM
GI50 (BT-549 breast): 3.82 µM
TGI (BT-549 breast): 39.9 µM
GI50 (CAKI-1 renal): 2.92 µM
TGI (CAKI-1 renal): > 100 µM
GI50 (CCRF-CEM leukemia): 1.93 µM
TGI (CCRF-CEM leukemia): > 100 µM
GI50 (COLO 205 colon): 4.01 µM
TGI (COLO 205 colon): > 100 µM
GI50 (DU-145 prostate): 2.99 µM
TGI (DU-145 prostate): 14 µM
GI50 (EKVX NSCLC): 1.99 µM
TGI (EKVX NSCLC): > 100 µM
GI50 (HCC-2998 colon): 3.87 µM
TGI (HCC-2998 colon): 12.4 µM
GI50 (HCT-116 colon): 3.8 µM
TGI (HCT-116 colon): > 100 µM
GI50 (HCT-15 colon): 3.38 µM
TGI (HCT-15 colon): > 100 µM
GI50 (HL-60(TB) leukemia): 2.69 µM
TGI (HL-60(TB) leukemia): > 100 µM
GI50 (HOP-62 NSCLC): 5.74 µM
TGI (HOP-62 NSCLC): 64.5 µM
GI50 (HOP-92 NSCLC): 0.47 µM
TGI (HOP-92 NSCLC): 4.93 µM
GI50 (HT29 colon): 3.91 µM
TGI (HT29 colon): > 100 µM
GI50 (IGROV1 ovarian): 2.53 µM
TGI (IGROV1 ovarian): 6.35 µM
GI50 (K-562 leukemia): 2.07 µM
TGI (K-562 leukemia): > 100 µM
GI50 (KM12 colon): 2.83 µM
TGI (KM12 colon): > 100 µM
GI50 (LOX IMVI melanoma): 3.84 µM
TGI (LOX IMVI melanoma): > 100 µM
GI50 (M14 melanoma): 5.59 µM
TGI (M14 melanoma): > 100 µM
GI50 (MALME-3M melanoma): 3.19 µM
TGI (MALME-3M melanoma): 15 µM
GI50 (MCF7 breast): 2.35 µM
TGI (MCF7 breast): 20.5 µM
GI50 (MDA-MB-231 breast): 2.96 µM
TGI (MDA-MB-231 breast): 31.1 µM
GI50 (MDA-MB-435): 2.68 µM
TGI (MDA-MB-435): 31.6 µM
GI50 (MOLT-4 leukemia): 1.27 µM
TGI (MOLT-4 leukemia): 6.62 µM
GI50 (NCI-H226 lung): 4.6 µM
TGI (NCI-H226 lung): 54.8 µM
GI50 (NCI-H23 lung): 4.97 µM
TGI (NCI-H23 lung): > 100 µM
GI50 (NCI-H460 lung): 1.87 µM
TGI (NCI-H460 lung): 5.3 µM
GI50 (NCI-H522 lung): 1.36 µM
TGI (NCI-H522 lung): 4.57 µM
GI50 (NCI/ADR-RES ovarian): 2.1 µM
TGI (NCI/ADR-RES ovarian): 33.9 µM
GI50 (OVCAR-3 ovarian): 2.8 µM
TGI (OVCAR-3 ovarian): 18.7 µM
GI50 (OVCAR-4 ovarian): 2.85 µM
TGI (OVCAR-4 ovarian): 22.3 µM
GI50 (OVCAR-5 ovarian): 82 µM
TGI (OVCAR-5 ovarian): > 100 µM
GI50 (OVCAR-8 ovarian): 1.21 µM
TGI (OVCAR-8 ovarian): 8.31 µM
GI50 (PC-3 prostate): 2.8 µM
TGI (PC-3 prostate): > 100 µM
GI50 (RPMI-8226 leukemia): 1.67 µM
TGI (RPMI-8226 leukemia): 15.6 µM
GI50 (SF-268 CNS): 3.84 µM
TGI (SF-268 CNS): > 100 µM
GI50 (SF-295 CNS): 3.69 µM
TGI (SF-295 CNS): > 100 µM
GI50 (SF-539 CNS): 2.12 µM
TGI (SF-539 CNS): 5.17 µM
GI50 (SK-MEL-2 melanoma): 2.73 µM
TGI (SK-MEL-2 melanoma): 8.31 µM
GI50 (SK-MEL-5 melanoma): 0.948 µM
TGI (SK-MEL-5 melanoma): 3.22 µM
GI50 (SK-OV-3 ovarian): 3.37 µM
TGI (SK-OV-3 ovarian): 10.4 µM
GI50 (SN12C renal): 5.29 µM
TGI (SN12C renal): > 100 µM
GI50 (SNB-19 CNS): 2.91 µM
TGI (SNB-19 CNS): 13.3 µM
GI50 (SNB-75 CNS): 2.49 µM
TGI (SNB-75 CNS): 6.93 µM
GI50 (SR leukemia): 1.12 µM
TGI (SR leukemia): 5.46 µM
GI50 (T-47D breast): 1.77 µM
TGI (T-47D breast): 7.65 µM
GI50 (TK-10 renal): 6.16 µM
TGI (TK-10 renal): > 100 µM
GI50 (U251 CNS): 3.72 µM
TGI (U251 CNS): > 100 µM
GI50 (UACC-257 melanoma): 3.86 µM
TGI (UACC-257 melanoma): 66 µM
GI50 (UACC-62 melanoma): 2.52 µM
TGI (UACC-62 melanoma): 19.9 µM
GI50 (UO-31 renal): 1.84 µM
TGI (UO-31 renal): 7.97 µM
